SMILES strings stand for the structures.

Among the data in patent US20250171457A1, “NITROGEN-CONTAINING HETEROCYCLIC COMPOUND HAVING NRF2 ACTIVATION EFFECT” (CHUGAI SEIYAKU KABUSHIKI KAISHA, priority 2022, published 2025) are EC50 values, retold here.

This assay concerns Nrf2 transcriptional activity (pARE-Luc reporter) in HepG2 cells. The assay can be described thus: In vitro Nrf2 transcriptional activity measurement by ARE-dependent reporter assay in HepG2 cell. It counts as cell-based, human. Conditions: Homo sapiens; HepG2 cells transfected with pARE-Luc, 4 hours at 37° C.; luciferase activity of Example 1-54 or Example 17-23 at 3.75 μM defined as 100%. The method, boiled down:
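Luminescence readout (Bright-Glo) after 4 h, 37° C compound exposure of HepG2 cells carrying the ARE-luciferase vector pGL4.37. Each well converted to % response versus reference compound at 3.75 μM, and EC50 derived from dose-response curves.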
On to `COCCN1[C@H](C)CN(c2cc(Cl)c(C(=O)N3COc4c(cccc4-c4cc(N5C6CCC5COC6)c(C(=O)O)cc4F)C3)c(Cl)c2)C[C@@H]1C` [Compound 8-4, 4-[3-[2,6-Dichloro-4-[meso-4-(2-methoxyethyl)-3,5-dimethylpiperazin-1-yl]benzoyl]-2,4-dihydro-1,3-benzoxazin-8-yl]-5-fluoro-2-(3-oxa-8-azabicyclo[3.2.1]octan-8-yl)benzoic acid], for which the response was half-maximal at 3.6 nM (EC50).

Regarding `COCCN1CCN(c2cc(Cl)c(C(=O)N3COc4c(cccc4-c4cc(N5C6CCC5COC6)c(C(=O)O)cc4F)C3)c(Cl)c2)CC1C` [Compound 8-5, 4-[3-[2,6-Dichloro-4-[(3S)-4-(2-methoxyethyl)-3-methylpiperazan-1-yl]benzoyl]-2,4-dihydro-1,3-benzoxazin-8-yl]-5-fluoro-2-(3-oxa-8-azabicyclo[3.2.1]octan-8-yl)benzoic acid], it took 2.4 nM to reach a half-maximal effect (EC50).

As to `COCCN1CC[C@H](Oc2cc(Cl)c(C(=O)N3COc4c(cccc4-c4cc(N5CCOCC5)c(C(=O)O)cc4F)C3)c(Cl)c2)C1` [Compound 8-6, 4-[3-[2,6-Dichloro-4-[(3S)-1-(2-methoxyethyl)pyrrolidin-3-yl]oxybenzoyl]-2,4-dihydro-1,3-benzoxazin-8-yl]-5-fluoro-2-morpholin-4-ylbenzoic acid], the response was half-maximal at 2.7 nM (EC50).

`COCCN1CCC[C@@H](Oc2cc(Cl)c(C(=O)N3COc4c(cccc4-c4cc(N5CCOCC5)c(C(=O)O)cc4F)C3)c(Cl)c2)C1` [Compound 8-7, 4-[3-[2,6-Dichloro-4-[(3R)-1-(2-methoxyethyl)piperidin-3-yl]oxybenzoyl]-2,4-dihydro-1,3-benzoxazin-8-yl]-5-fluoro-2-morpholin-4-ylbenzoic acid]: the EC50 – broadly, the concentration that produces a half-maximal response – came to 2.1 nM.

`O=C(O)c1cc(F)c(-c2cccc3c2OCN(C(=O)c2c(Cl)cc(OC4CN(CC(F)(F)F)C4)cc2Cl)C3)cc1N1C2CCC1COC2` [Compound 8-8, 4-[3-[2,6-Dichloro-4-[1-(2,2,2-trifluoroethyl)azetidin-3-yl]oxybenzoyl]-2,4-dihydro-1,3-benzoxazin-8-yl]-5-fluoro-2-(3-oxa-8-azabicyclo[3.2.1]octan-8-yl)benzoic acid]: the EC50 was 4.8 nM.

`COCCN1CC2(CCN(c3cc(Cl)c(C(=O)N4COc5c(cccc5-c5cc(N6C7CCC6COC7)c(C(=O)O)cc5F)C4)c(Cl)c3)C2)C1` [Compound 8-9, 4-[3-[2,6-Dichloro-4-[2-(2-methoxyethyl)-2,7-diazaspiro[3.4]octan-7-yl]benzoyl]-2,4-dihydro-1,3-benzoxazin-8-yl]-5-fluoro-2-(3-oxa-8-azabicyclo[3.2.1]octan-8-yl)benzoic acid] yielded an EC50 of 9.5 nM.

For `CN1CCOC2(C1)CN(c1cc(Cl)c(C(=O)N3COc4c(cccc4-c4cc(N5C6CCC5COC6)c(C(=O)O)cc4F)C3)c(Cl)c1)C2` [Compound 9-1, 4-[3-[2,6-Dichloro-4-(8-methyl-5-oxa-2,8-diazaspiro[3.5]nonan-2-yl)benzoyl]-2,4-dihydro-1,3-benzoxazin-8-yl]-5-fluoro-2-(3-oxa-8-azabicyclo[3.2.1]octan-8-yl)benzoic acid], the midpoint of the response, the EC50, lay at 3.5 nM.

`O=C(O)c1cc(F)c(-c2cccc3c2OCN(C(=O)c2c(Cl)cc(N4CC5(C4)CN(C4CC(F)(F)C4)C5)cc2Cl)C3)cc1N1C2CCC1COC2` [Compound 9-2, 4-[3-[2,6-Dichloro-4-[2-(3,3-difluorocyclobutyl)-2,6-diazaspiro[3.3]heptan-6-yl]benzoyl]-2,4-dihydro-1,3-benzoxazin-8-yl]-5-fluoro-2-(3-oxa-8-azabicyclo[3.2.1]octan-8-yl)benzoic acid] yielded an EC50 of 7.4 nM.

On to `O=C(O)c1cc(F)c(-c2cccc3c2OCN(C(=O)c2c(Cl)cc(N4CC5(C4)CN(C4COC4)C5)cc2Cl)C3)cc1N1C2CCC1COC2` [Compound 9-3, 4-[3-[2,6-Dichloro-4-[2-(oxetan-3-yl)-2,6-diazaspiro[3.3]heptan-6-yl]benzoyl]-2,4-dihydro-1,3-benzoxazin-8-yl]-5-fluoro-2-(3-oxa-8-azabicyclo[3.2.1]octan-8-yl)benzoic acid], for which a half-maximal effect (EC50) was put at 19 nM.

In turn, `O=C(O)c1cc(F)c(-c2cccc3c2OCN(C(=O)c2c(Cl)cc(N4CC5(C4)CN(C4CC4)C5)cc2Cl)C3)cc1N1C2CCC1COC2` [Compound 9-4, 4-[3-[2,6-Dichloro-4-(2-cyclopropyl-2,6-diazaspiro[3.3]heptan-6-yl)benzoyl]-2,4-dihydro-1,3-benzoxazin-8-yl]-5-fluoro-2-(3-oxa-8-azabicyclo[3.2.1]octan-8-yl)benzoic acid] displayed an EC50 of 7.5 nM.

`CN1CCN(c2cc(Cl)c(C(=O)N3COc4c(cccc4-c4cc(N5C6CCC5COC6)c(C(=O)O)cc4F)C3)c(Cl)c2)C2CC21` (stereo not shown) [Compound 9-5, 4-[3-[2,6-Dichloro-4-(5-methyl-2,5-diazabicyclo[4.1.0]heptan-2-yl)benzoyl]-2,4-dihydro-1,3-benzoxazin-8-yl]-5-fluoro-2-(3-oxa-8-azabicyclo[3.2.1]octan-8-yl)benzoic acid] had an EC50 of 4.6 nM.

`C[C@@H]1CN(c2cc(Cl)c(C(=O)N3COc4c(cccc4-c4cc(N5C6CCC5COC6)c(C(=O)O)cc4F)C3)c(Cl)c2)[C@@H](C)CN1C` [Compound 9-6, 4-[3-[2,6-Dichloro-4-[(2S,5R)-2,4,5-trimethylpiperazin-1-yl]benzoyl]-2,4-dihydro-1,3-benzoxazin-8-yl]-5-fluoro-2-(3-oxa-8-azabicyclo[3.2.1]octan-8-yl)benzoic acid] showed an EC50 of 5.7 nM.

As for `CN1C2CCC1CN(c1cc(Cl)c(C(=O)N3COc4c(cccc4-c4cc(N5C6CCC5COC6)c(C(=O)O)cc4F)C3)c(Cl)c1)C2` [Compound 9-7, 4-[3-[2,6-Dichloro-4-(8-methyl-3,8-diazabicyclo[3.2.1]octan-3-yl)benzoyl]-2,4-dihydro-1,3-benzoxazin-8-yl]-5-fluoro-2-(3-oxa-8-azabicyclo[3.2.1]octan-8-yl)benzoic acid], the EC50 was 14 nM.

Compound `CN1CC2CCC(C1)N2c1cc(Cl)c(C(=O)N2COc3c(cccc3-c3cc(N4C5CCC4COC5)c(C(=O)O)cc3F)C2)c(Cl)c1` [Compound 9-8, 4-[3-[2,6-Dichloro-4-(3-methyl-3,8-diazabicyclo[3.2.1]octan-8-yl)benzoyl]-2,4-dihydro-1,3-benzoxazin-8-yl]-5-fluoro-2-(3-oxa-8-azabicyclo[3.2.1]octan-8-yl)benzoic acid] gave an EC50 of 3.5 nM.

For `C[C@@H]1CN(c2cc(Cl)c(C(=O)N3COc4c(cccc4-c4cc(N5C6CCC5COC6)c(C(=O)O)cc4F)C3)c(Cl)c2)[C@H](C)CN1C` [Compound 9-9, 4-[3-[2,6-Dichloro-4-[(2R,5R)-2,4,5-trimethylpiperazin-1-yl]benzoyl]-2,4-dihydro-1,3-benzoxazin-8-yl]-5-fluoro-2-(3-oxa-8-azabicyclo[3.2.1]octan-8-yl)benzoic acid], the response was half-maximal at 1.5 nM (EC50).

Regarding `CN1CC2CC(C1)N2c1cc(Cl)c(C(=O)N2COc3c(cccc3-c3cc(N4C5CCC4COC5)c(C(=O)O)cc3F)C2)c(Cl)c1` [Compound 9-10, 4-[3-[2,6-Dichloro-4-(3-methyl-3,6-diazabicyclo[3.1.1]heptan-6-yl)benzoyl]-2,4-dihydro-1,3-benzoxazin-8-yl]-5-fluoro-2-(3-oxa-8-azabicyclo[3.2.1]octan-8-yl)benzoic acid], the midpoint of the response, the EC50, lay at 8.8 nM.
